Test results reported in publication PMC4352019, “Bioactivity-Guided Fractionation of an Antidiarrheal Chinese Herb Rhodiola kirilowii (Regel) Maxim Reveals (-)–Epicatechin-3-Gallate and (-)–Epigallocatechin-3-Gallate as Inhibitors of Cystic Fibrosis Transmembrane Conductance Regulator” (PLoS ONE, 2015).

Target: T1, Cystic fibrosis transmembrane conductance regulator (CFTR) (Homo sapiens, UniProt P13569)
T1 construct: human wild-type CFTR stably expressed in FRT cells
Test: YFP-H148Q iodide influx fluorescence assay in CFTR-expressing FRT cells; supported by short-circuit current in rat colonic mucosa
Format: cell-based

T1 sequence (P13569 whole entry): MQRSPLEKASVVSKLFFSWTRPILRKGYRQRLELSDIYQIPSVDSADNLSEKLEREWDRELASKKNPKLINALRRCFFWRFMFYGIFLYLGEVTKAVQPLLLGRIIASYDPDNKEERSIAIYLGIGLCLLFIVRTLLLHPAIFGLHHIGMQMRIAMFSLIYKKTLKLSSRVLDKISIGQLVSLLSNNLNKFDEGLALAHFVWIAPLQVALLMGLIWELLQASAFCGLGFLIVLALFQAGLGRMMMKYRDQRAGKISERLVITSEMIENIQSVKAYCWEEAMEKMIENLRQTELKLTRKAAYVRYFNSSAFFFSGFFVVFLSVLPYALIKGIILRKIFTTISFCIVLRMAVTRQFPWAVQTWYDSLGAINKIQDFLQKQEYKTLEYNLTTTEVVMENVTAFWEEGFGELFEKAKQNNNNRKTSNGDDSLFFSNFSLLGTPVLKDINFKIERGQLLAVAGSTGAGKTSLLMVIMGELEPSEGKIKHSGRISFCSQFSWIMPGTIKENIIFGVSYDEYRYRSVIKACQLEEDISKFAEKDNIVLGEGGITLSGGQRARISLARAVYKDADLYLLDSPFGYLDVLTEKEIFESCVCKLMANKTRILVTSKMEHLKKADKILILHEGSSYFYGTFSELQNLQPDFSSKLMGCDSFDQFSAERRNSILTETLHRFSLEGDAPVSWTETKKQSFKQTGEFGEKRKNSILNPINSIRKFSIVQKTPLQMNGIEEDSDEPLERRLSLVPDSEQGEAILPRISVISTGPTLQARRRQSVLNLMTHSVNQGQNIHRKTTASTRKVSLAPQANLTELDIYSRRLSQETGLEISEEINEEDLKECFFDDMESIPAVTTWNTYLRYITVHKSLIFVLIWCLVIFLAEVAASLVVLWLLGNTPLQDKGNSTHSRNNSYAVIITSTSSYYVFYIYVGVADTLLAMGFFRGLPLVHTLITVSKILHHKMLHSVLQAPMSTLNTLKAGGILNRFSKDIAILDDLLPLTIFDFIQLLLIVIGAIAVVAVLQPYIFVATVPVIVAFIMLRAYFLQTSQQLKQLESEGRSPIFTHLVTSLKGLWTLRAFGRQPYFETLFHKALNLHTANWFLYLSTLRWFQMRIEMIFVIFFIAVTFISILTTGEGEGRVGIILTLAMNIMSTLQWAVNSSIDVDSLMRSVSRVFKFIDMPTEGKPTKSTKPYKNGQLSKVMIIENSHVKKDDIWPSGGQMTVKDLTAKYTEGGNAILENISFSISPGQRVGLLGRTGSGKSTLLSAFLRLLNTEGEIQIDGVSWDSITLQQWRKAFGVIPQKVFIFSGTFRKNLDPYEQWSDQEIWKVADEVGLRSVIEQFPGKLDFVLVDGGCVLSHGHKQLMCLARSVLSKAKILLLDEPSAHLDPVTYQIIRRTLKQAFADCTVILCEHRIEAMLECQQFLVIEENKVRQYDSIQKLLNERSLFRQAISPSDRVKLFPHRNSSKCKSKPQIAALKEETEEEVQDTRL

Work on `O=C(O[C@@H]1Cc2c(O)cc(O)cc2O[C@@H]1c1cc(O)c(O)c(O)c1)c1cc(O)c(O)c(O)c1` [C2, (-)–epigallocatechin-3-gallate] yielded an IC50 of ~100 µM.
